The source of these data is article PMC12898745, “VOCs Profiling and Quality Assessment of Milk Employing Odorant-Binding Proteins-Based Fluorescence Biosensor” (International Journal of Molecular Sciences, 2026).

For data set [1], the target named is bovine serum albumin (BSA) (Bos taurus, UniProt P02769). Nature of the data set: HS-SPME/GC-MS binding assay with BSA (negative control protein). The note with it: BSA in place of pOBP; 10 µM volatile, overnight, room temperature.
Description: Afterwards, the fiber (DVB-Carboxen-PDMS, 2 cm length SUPELCO, Bellefonte, PA, USA) was automatically inserted in the vial for 60 min and then desorbed for 10 min at 250 °C in the injector port of a GC, model 7890A, Agilent (Agilent Technologies, Santa Clara, CA, USA) coupled to a mass spectrometer, model 5975 C (Agilent), where VOCs were thermally released and directly transported to a capillary column HP-Innowax (30 m × 0.25 mm × 0.5 µm Agilent J&W) for analysis. The oven temperature was set as follows: 40 °C for 1 min, ramped to 160 °C at 6 °C min^−1, then, after 1 min, increased 10 °C min^−1 to 210 °C, and finally ramped to 230 °C at 15 °C min^−1, and kept there for 5 min. The temperatures of the ion source and the quadrupole were 230 °C and 150 °C, respectively, and helium at a flow rate of 1.0 mL min^−1 was the carrier gas. The analyses were carried out using the pulsed spitless mode, and mass spectra were recorded at an ionization energy of 70 eV, with mass selective detector operating in the mass range between 30 and 300 u. […]
Linear retention indices (LRIs) were calculated using the same chromatographic conditions by injecting C8–C40 n-alkane series (Supelco, Bellefonte, PA, USA). VOCs were identified by comparing the mass spectra reported in the NIST-2014 and Wiley 7.0 libraries by matching the calculated LRI with the literature data and by valuating their retention times, with respect to those of pure standards, if available. The VOCs concentrations were expressed as the equivalent of the IS (percent ratio of the respective peak area relative to the IS area, RPA%), and areas were taken from the total ion chromatogram (TIC) according to the following equation: (Peak Area of each VOC/Peak Area IS) × 100. […]
Data set [2] has as its target T1, pOBP (Sus scrofa, UniProt P81245).
T1 sequence (P81245 1-157): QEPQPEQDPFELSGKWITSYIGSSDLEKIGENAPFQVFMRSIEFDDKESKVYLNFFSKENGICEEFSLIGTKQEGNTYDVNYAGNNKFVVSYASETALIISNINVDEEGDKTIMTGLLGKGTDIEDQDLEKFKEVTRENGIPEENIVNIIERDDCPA
Nature of the data set: Thermal denaturation of pOBP by tryptophan fluorescence. In kind it is physicochemical, porcine. The note with it: for effect of VOC on thermal stability (Tm) of pOBP: saturating concentrations: 1-pentanol 50 mM, 1-octen-3-ol 5 mM, 2-butanone 10 mM. On the procedure:
(§1) Thermal stability studies were conducted to evaluate the temperature-induced denaturation of the pOBP and bOBP. The experiments aimed to determine the unfolding dynamics of these proteins and assess the influence of VOCs on protein stability. The thermal stabilities of pOBP and bOBP were monitored by fluorescence spectroscopy. The temperature-dependent fluorescence emission spectra were recorded in the range 320–410 nm, with excitation at 295 nm to selectively excite tryptophan residues.
(§2) Boltzmann fitting was applied to describe the thermal denaturation behavior and determine the melting temperature (Tm) values, defined as the midpoint of the transition between the folded and unfolded states. The calculated Tm values were 62 ± 0.4 °C for pOBP (Figure 6b) and 54 ± 0.5 °C for bOBP (Figure 7b).
(§3) To analyze the protein’s thermal stability, studies on temperature-induced denaturation were conducted on the chosen OBPs in the absence and presence of the selected VOCs. The emission spectra were recorded at an excitation wavelength of 295 nm to focus only on the contribution of tryptophan residues with a 12 μM pOBP sample, with an optical density around 0.1 OD at 295 nm.
Fluorescence intensity variation was recorded in the temperature range from 25 to 95 °C and the emission spectra acquired in the wavelength range 320–410 nm. Measurements were performed in triplicate after 10 min of incubation at defined temperatures. […] To analyze the thermal denaturation data, OriginPro 2021b software was used.

Data set [3] has as its target T1, pOBP. Nature of the data set: Fluorescence titration with 1-AMA and competitive FRET assay on pOBP. In kind it is binding, porcine. On the procedure: (§4) The ability of pOBP and bOBP to bind 1-AMA was assessed through fluorescence titration experiments. […] However, upon binding 1-AMA to OBPs, two major spectral changes were observed: • A blue-shift in the emission maximum to 481 nm, along with a significant increase in fluorescence intensity. • A decrease in the tryptophan fluorescence emission at 340 nm.
A competitive FRET assay was performed to study the interaction between the OBP and the selected VOCs. In the assay, a solution of OBPs in the presence of 1-AMA was titrated with increasing concentrations of VOCs. The fluorescence emissions at 481 nm (1-AMA bound state) and 340 nm (tryptophan emission) were recorded. A progressive decrease of 1-AMA fluorescence emission and a partial recovery of the protein tryptophan emission were observed. This trend indicates the displacement of 1-AMA from the protein binding site by individual selected VOCs. The variations in the FRET signals, due to competitive binding, were used to quantify the VOC bound to the protein.
Steady-state fluorescence measurements were conducted using an ISS K2 Frequency-Domain Fluorometer (ISS Inc., Champaign, IL, USA) with a 1.0 cm path length quartz cuvette. Fluorescence spectra of bOBP and pOBP samples were recorded, ensuring optical densities below 0.1 OD at 295 nm to prevent inner filter effects. Tryptophan (Trp) residues were excited at 295 nm, and fluorescence emission spectra were collected from 320 nm to 600 nm at 1 nm intervals, with a scan speed of 100 nm/min and excitation and emission slit widths set at 1.0 nm. The lamp power was maintained at 17.5 A. Assays were performed in 500 μL of phosphate saline buffer (PBS) at pH 7.4. The OBPs-VOCs interactions were studied by a fluorescence titration approach. For this purpose, the protein (12 µM, saturated with 1-AMA) was titrated with increasing concentrations of the tested VOC. The measurements were carried out in triplicate, and the obtained experimental data were processed by OriginPro 2021b software.
For the fluorometric competitive assay, the ability of OBPs to bind VOCs and 1-AMA was utilized to develop a FRET-based assay. The competition between VOCs and 1-AMA for binding to the OBP’s active site was studied by monitoring the fluorescence emission decrease consequent to the VOCs displacement of 1-AMA from the OBP’s active site. […] The measurements were carried out in triplicate, and the data were analyzed using the OriginPro 2021b software.

For data set [4], the target named is T1, pOBP. Nature of the data set: HS-SPME/GC-MS binding assay with pOBP. Also noted: species or system porcine. The note with it: pOBP 30 µM; 10 µM volatile, overnight, room temperature. On the procedure:
To assess the ability of pOBP to bind VOCs, HS-SPME/GC-MS analyses were carried out on binding assays in the absence and in the presence of the two OBPs. Binding assay experiments were conducted in parallel on samples in the absence (only buffer as negative control) and in the presence of bovine serum albumin (BSA) (used as negative control of protein) or pOBP.
The HS-SPME/GC-MS technique was used to evaluate the VOCs profiles of samples of raw cow milk and, successively, the ability of purified OBPs to bind to selected VOCs in the gas phase. According to Sacchi et al., 5 mL of milk were introduced in a HS-SPME 20 mL glass vial, with 5 µL of a standard solution of 2-methyl-3-pentanone used as internal standard (IS, 5 mM). Samples were equilibrated for 30 min at 55 °C to release VOCs. […] The analyses were carried out using the pulsed spitless mode, and mass spectra were recorded at an ionization energy of 70 eV, with mass selective detector operating in the mass range between 30 and 300 u. […]
Linear retention indices (LRIs) were calculated using the same chromatographic conditions by injecting C8–C40 n-alkane series (Supelco, Bellefonte, PA, USA). VOCs were identified by comparing the mass spectra reported in the NIST-2014 and Wiley 7.0 libraries by matching the calculated LRI with the literature data and by valuating their retention times, with respect to those of pure standards, if available. The VOCs concentrations were expressed as the equivalent of the IS (percent ratio of the respective peak area relative to the IS area, RPA%), and areas were taken from the total ion chromatogram (TIC) according to the following equation: (Peak Area of each VOC/Peak Area IS) × 100.
Using the same experimental parameters reported above, HS-SPME/GC-MS analysis was also performed on pOBP samples with and without exposition to the HS of the selected VOCs. […] The peak areas measured for PBS-only and pOBP-comprising samples were compared for each experiment. […]

Data set [5] deals with T2, bOBP (Bos taurus, UniProt P07435, H155C/INS121G/W64C).
T2 construct: His tag; made in house
T2 sequence (P07435 with tags, fused parts or gaps W64C/INS121G/H155C): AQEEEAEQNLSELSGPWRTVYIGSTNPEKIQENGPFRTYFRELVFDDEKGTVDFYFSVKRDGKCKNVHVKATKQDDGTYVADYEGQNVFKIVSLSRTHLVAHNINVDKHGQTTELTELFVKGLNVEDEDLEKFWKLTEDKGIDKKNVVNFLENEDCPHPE
Nature of the data set: Thermal denaturation of bOBP by tryptophan fluorescence. In kind it is physicochemical, bovine. The note with it: saturating VOC concentrations. On the procedure:
as §1, §2, §3
Fluorescence intensity variation was recorded in the temperature range from 25 to 95 °C and the emission spectra acquired in the wavelength range 320–410 nm. […]

Data set [6] deals with T3, bOBP (Bos taurus, UniProt P07435).
T3 sequence (P07435 1-159): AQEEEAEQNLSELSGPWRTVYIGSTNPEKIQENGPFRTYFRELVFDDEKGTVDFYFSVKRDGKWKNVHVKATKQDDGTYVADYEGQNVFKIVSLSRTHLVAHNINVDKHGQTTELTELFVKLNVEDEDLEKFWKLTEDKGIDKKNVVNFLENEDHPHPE
Description: Fluorescence titration with 1-AMA and competitive FRET assay on bOBP. It is filed as binding, bovine. The note with it: read-out: bOBP Kd ± SD; non-linear fitting; PBS pH 7.4; VOCs by displacement of 1-AMA. On the procedure:
as §4
A competitive FRET assay was performed to study the interaction between the OBP and the selected VOCs. In the assay, a solution of OBPs in the presence of 1-AMA was titrated with increasing concentrations of VOCs. The fluorescence emissions at 481 nm (1-AMA bound state) and 340 nm (tryptophan emission) were recorded. A progressive decrease of 1-AMA fluorescence emission and a partial recovery of the protein tryptophan emission were observed. […] The variations in the FRET signals, due to competitive binding, were used to quantify the VOC bound to the protein.
Steady-state fluorescence measurements were conducted using an ISS K2 Frequency-Domain Fluorometer (ISS Inc., Champaign, IL, USA) with a 1.0 cm path length quartz cuvette. Fluorescence spectra of bOBP and pOBP samples were recorded, ensuring optical densities below 0.1 OD at 295 nm to prevent inner filter effects. […] The OBPs-VOCs interactions were studied by a fluorescence titration approach. […]

For data set [7], the target named is T1, pOBP. Description: Fluorescence quenching (Stern-Volmer) of pOBP. More on the design: species or system porcine. The note with it: acrylamide quencher, no VOC. On the procedure:
To study the protein conformational changes and accessibility to the tryptophan residues, fluorescence quenching experiments were conducted. According to Lakowicz, acrylamide is the most suitable quencher for tryptophan fluorescence. The quenching effect of acrylamide on the intrinsic fluorescence of the protein was analyzed. The study aimed to characterize the accessibility of tryptophan residues, to differentiate between static and dynamic quenching mechanisms, and to assess the effects of the VOCs binding on protein stability. Fluorescence quenching can occur through two primary mechanisms: dynamic (collisional) and static quenching. Dynamic quenching occurs when acrylamide molecules collide with the fluorophore in its excited state, facilitating a non-radiative energy transfer or electron exchange. […]
To evaluate the solvent accessibility of the OBP’s tryptophan residues, a fluorescence quenching assay was performed using acrylamide. […] Fluorescence emission spectra were acquired using an excitation wavelength of 295 nm and emission range from 310 to 410 nm.
Quenching data were evaluated using the Stern–Volmer equation by plotting F0/F against [Q], where F0 represents the fluorescence intensity without quencher, F is the fluorescence intensity in the presence of quencher, and [Q] denotes the quencher concentration [Equation (2)]:(2) F0/F=1+KSV [Q]

In data set [8] the target is T1, pOBP. More on the design: method as in earlier work. The note with it: HS-DSC, neutral pH; ref 21 (Staiano et al. 2007); cited from earlier work.
[9] abbreviates: competitive titration with VOC, Figure 4 insets, read-out: k (Hill fit), decrease of 1-AMA emission at 481 nm, pOBP.
[10] abbreviates: non-linear fitting, PBS pH 7.4, VOCs by displacement of 1-AMA, read-out: pOBP Kd ± SD.

Where two headings read alike, the source gives them in different places.

Chain of bovine serum albumin (BSA) (P02769 25-607): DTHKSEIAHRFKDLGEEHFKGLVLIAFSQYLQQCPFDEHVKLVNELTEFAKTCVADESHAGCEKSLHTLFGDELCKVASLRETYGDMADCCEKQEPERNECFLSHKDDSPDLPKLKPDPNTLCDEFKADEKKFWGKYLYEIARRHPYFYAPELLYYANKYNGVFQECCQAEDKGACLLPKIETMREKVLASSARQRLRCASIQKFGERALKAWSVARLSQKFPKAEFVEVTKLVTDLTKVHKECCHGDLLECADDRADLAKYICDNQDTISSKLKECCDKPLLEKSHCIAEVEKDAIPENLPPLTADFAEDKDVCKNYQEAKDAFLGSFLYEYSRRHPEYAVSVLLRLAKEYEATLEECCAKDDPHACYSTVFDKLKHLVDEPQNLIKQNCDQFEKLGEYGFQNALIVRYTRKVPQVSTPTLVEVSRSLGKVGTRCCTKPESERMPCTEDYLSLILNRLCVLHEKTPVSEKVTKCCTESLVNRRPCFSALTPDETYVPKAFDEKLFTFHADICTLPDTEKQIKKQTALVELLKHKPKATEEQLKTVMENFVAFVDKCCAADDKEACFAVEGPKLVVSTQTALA

Take `CCCCCO` [1-pentanol]: the “%RPA, BSA” value in data set [1] is reported as 242.5 ± 5.1 %RPA. Further, the “effect of VOC on thermal stability (Tm) of pOBP” value (shortened to “effect of VOC … of pOBP”) in data set [2] was “significantly stabilized”. The values for the Kd in data set [3] (setting [9]) and in data set [3] (setting [10]) were 1860 µM and 1800 ± 1200 µM, respectively. Besides, the “%RPA, pOBP” value in data set [4] was found to be 425.0 ± 8.3 %RPA. Moreover, the “effect of VOC on thermal stability (Tm) of bOBP” value in data set [5] is on record as “highest stability”.

In the case of `CCC(C)=O` [2-butanone], the “%RPA, BSA” value in data set [1] came out at 276.2 ± 2.7 %RPA. Also, the “effect of VOC … of pOBP” value in data set [2] is listed as “significantly stabilized”. Further, the Kd in data set [3] (setting [10]) is 934 ± 56 µM. The “%RPA, pOBP” value in data set [4] is 926.7 ± 10.3 %RPA.

As for `C=CC(O)CCCCC` (stereo not drawn) [1-octen-3-ol], the “%RPA, BSA” value in data set [1] is reported as 226.7 ± 8.9 %RPA. In data set [2] (saturating VOC concentration (1-octen-3-ol 5 mM)), the “Tm of pOBP in the presence of VOC” value is 64 ± 1.45 °C. In addition, the “effect of VOC … of pOBP” value in data set [2] was “significantly stabilized”. In addition, the Kd came to 479 µM in data set [3] (setting [9]) and 479 ± 53 µM in data set [3] (setting [10]). Further, the “%RPA, pOBP” value in data set [4] was 708.1 ± 2.7 %RPA.

Turning to `Nc1cccc2cc3ccccc3cc12` [1-AMA, 1-aminoanthracene, reference compound], the Kd turned out to be 2.03 ± 0.13 µM in data set [3] and 2.68 ± 0.46 µM in data set [6].

B1: pOBP: porcine odorant-binding protein, a typical monomeric lipocalin used as molecular recognition element (protein, UniProt P81245 1-157, looked up)
Odorant-binding protein: T1 sequence (P81245 1-157)
Take B1: the “Stern-Volmer constant K_SV, pOBP” value in data set [7] is 3 ± 1 M^−1. Further, the “unfolding transition temperature of pOBP” value in data set [8] is “approximately 69 °C”. For the same molecule, the “melting temperature (Tm) of pOBP” value in data set [2] (no VOC, Boltzmann fitting, emission 340 nm, 25-95 °C) came out at 62 ± 0.4 °C.
